{"source": "patent EP4417616A1", "about": "“LXR ANTAGONISTS” (Ospedale San Raffaele S.r.l., priority 2023, dated 2024)", "key": {"[1]": {"system": "Lewis Lung Carcinoma (LLC)", "assay": "Treatment of LLC tumor-bearing mice", "format": "in vivo", "text": "(§1) Tumor challenge experiments."}, "[2]": {"system": "melanoma B16F1-OVA", "assay": "Treatment of B16F1-OVA-bearing mice", "format": "in vivo", "text": "as §1"}, "[3]": {"assay": "Blood plasma chemistry analysis (plasma lipids)", "format": "in vivo", "conditions": "tumor-bearing mice; PFM037 (0.4 µg/day); Fig. 5N", "experimental": "Blood Plasma Chemistry Analysis. For all in vivo experiments mouse blood samples were collected via cardiac puncture and isolated plasma was analyzed by the COBAS c311 system (Roche) for plasma lipids."}, "[4]": {"system": "bone marrow-purified monocytes", "assay": "In vitro mono-DC differentiation of bone marrow-purified monocytes cultured with M-CSF", "format": "cell-based, mouse", "conditions": "wild type monocytes, 48 hours of culture"}, "[5]": {"system": "OT-I T cells", "assay": "In vitro differentiation and expansion of activated OT-I T cells by IL-7/IL15", "format": "cell-based, mouse", "experimental": ". Forty-eight hours later the cells were differentiated and expanded by IL-7/IL15 (5ng/ml both cytokines) with or without PFM037. Ten, 12 and 15 days later, FACS analysis was performed to evaluate their differentiation status. […]. Then, mice bearing MC-38-OVA-liver metastases were treated with vehicle, or OT-I T cells expanded with IL-2 (effectors), or IL-7/IL15 with or without PFM037. Tumor-bearing mice injected with vehicle were all dead 40 days after tumor injection. Twenty percent of tumor-bearing mice treated with OT-I T cells expanded with IL-2 were alive at 60 days, whereas 50% and 80% of tumor-bearing mice treated with IL-7/IL15 with or without PFM037, respectively, were alive at 60 days (Fig. 20). […]."}, "[6]": {"system": "human T cells", "assay": "In vitro expansion of activated human T cells by IL-7/IL15", "format": "cell-based", "conditions": "human T cells expanded by IL-7/IL15 with PFM037 (5 and 10 µM)"}, "[7]": {"system": "LLC tumors", "assay": "NMR lipidomic profiling of LLC tumors", "conditions": "PFM037-treated vs vehicle-treated LLC tumors", "procedure": "Extraction of the lipidic and polar fractions from tumor tissues. […] They were resuspended in 170 µL of H2O and 700 µL of methanol and sonicated for 60 sec. Then, 350 µL of chloroform were added and mixed the samples on an orbital shaker in ice for 10 minutes. After that, 350 µL of H2O/chloroform (1:1, v/v) were added to each suspension and centrifuged at 4000 rpm for 10 minutes at 4°C. Thereafter, the aqueous (polar) and lipidic (non-polar) phases were collected separately, transferred to a glass vial and evaporated.\n^1H NMR spectra acquisition and data analysis. All the lipidic and polar samples were analyzed using Nuclear Magnetic Resonance (NMR). The lipidic fractions were dissolved in 700 µL of deuterated chloroform (CDCl3) and 0.03 volume percentage of tetramethylsilane (TMS) and inserted in NMR tubes whereas the polar fractions were dissolved in 630 µL of PBS-D2O with the pH adjusted to 7.20, and 70 µL of trimethylsilylpropanoic acid (TSP) (1% in D2O). TMS and TSP were used as the internal standards. […] All ^1H NMR spectra were manually phased and baseline-corrected and referenced to the CH3 resonance of TSP or TMS at 0 ppm. The spectral 0.50-8.60 ppm region of ^1H-NMR spectra was integrated in buckets of 0.04 ppm by AMIX package (Bruker, Biospin, Germany). […]"}, "[8]": {"system": "MC38-GFP colon cancer cells", "assay": "Liver metastasis model, intramesenteric injection of MC38-GFP cells", "conditions": "400 µg, 3 days/week for 2 weeks; 21 days after tumor challenge; vs vehicle", "procedure": "Macroscopic liver tumor quantification and Immunohistochemistry. At time of autopsy, visible macroscopic tumors were counted, and each liver macroscopically photographed. Livers were then perfused with PBS, harvested and different pieces were sampled, fixed in zinc-formalin and embedded in paraffin for hematoxylin/eosin or immunohistochemical analysis as described^62. Immunohistochemical staining was performed using a Bond RX Automated Immunohistochemistry system (Leica Microsystems GmbH, Wetzlar, Germany) on 3-µm-thick sections. First, tissues were deparaffinized and pre-treated with the Epitope Retrieval Solution [ER1 Citrate Buffer for GFP (dilution 1:500, GFP Polyclonal Antibody, Thermo Fisher Scientific, Cat# A11122, RRID:AB_221569). After washing steps, peroxidase blocking was carried out for 10 min using the Bond Polymer Refine Detection Kit DS9800 (Leica Microsystems GmbH). Then, tissues were washed and incubated for 1h RT with the primary antibody diluted in IHC Antibody Diluent (Novocastra, Leica RE7133). Subsequently, tissues were incubated with polymer-HRP (Biocare Medical, RT517H), developed with DAB-Chromogen for 10 minutes and counterstained with Hematoxilin for 5 minutes. For image acquisition and analysis eSlide Manager (Aperio Leica Biosystems) was used. All images were acquired using the Aperio AT2 system (Leica Biosystems). […]"}, "[9]": {"conditions": "LLC-bearing mice, 300 µg i.v. 5 days/week from day 6-7, vs vehicle"}, "[10]": {"conditions": "OT-I T cells expanded by IL-7/IL15 with PFM037, FACS at 10, 12 and 15 days"}}}
{"smiles": "CC(C)CC[C@H](O)[C@@H](C)[C@H]1CC[C@H]2[C@@H]3CC=C4C[C@@H](OS(=O)(=O)[O-])CC[C@]4(C)[C@H]3CC[C@]12C.[Na+]", "note": "[PFM037, 22(S)-Hydroxycholesterol-3-sulfate sodium salt]", "values": [{"measurement": "absolute numbers of tumor-infiltrating mono-DCs", "setting": "[1]; [9]", "result": "Higher"}, {"measurement": "tumor growth", "setting": "[1]; [9]", "result": "delay of tumor growth"}, {"measurement": "tumor growth", "setting": "[1]; established LLC tumors, 300 µg/mouse every other day, Fig. 24B", "result": "able to control LLC tumor growth"}, {"measurement": "LLC growth in wild type BM-chimera mice", "setting": "[1]; wild type BM-chimera mice, compared to vehicle, Fig. 7C", "result": "better control of LLC growth"}, {"measurement": "antitumor activity, 400 µg compared with 300 µg", "setting": "[2]", "result": "much stronger"}, {"measurement": "tumor growth", "setting": "[2]; 400 µg 5 days/week", "result": "delayed the growth"}, {"measurement": "plasma HDL", "setting": "[3]", "result": "reduced levels"}, {"measurement": "plasma LDL", "setting": "[3]", "result": "did not change"}, {"measurement": "plasma not esterified fatty acids", "setting": "[3]", "result": "reduced levels"}, {"measurement": "plasma total cholesterol", "setting": "[3]", "result": "reduced levels"}, {"measurement": "plasma triglycerides", "setting": "[3]", "result": "reduced levels"}, {"measurement": "CD11c marker expression", "setting": "[4]", "result": "expressed CD11c marker"}, {"measurement": "CD39 and CD69 markers", "setting": "[5]; [10]", "result": "progressively lost"}, {"measurement": "CD62L and CD44low markers", "setting": "[5]; [10]", "result": "progressively acquiring"}, {"measurement": "stemness markers Sca1, Tcf1 and CXCR3", "setting": "[5]; T cells expanded by IL7 and IL15 in the presence of PFM037", "result": "higher levels"}, {"measurement": "markers associated to memory/stem cell memory T cells", "setting": "[6]", "result": "higher levels"}, {"measurement": "proton signals of ω-3 fatty acid docosahexaenoic acid and its derivatives", "setting": "[7]", "result": "lower levels"}, {"measurement": "proton signals of ω-6 fatty acid arachidonic acid and its derivatives", "setting": "[7]", "result": "enriched"}, {"measurement": "tumor area", "setting": "[8]", "result": "reduced"}, {"measurement": "tumor nodules (macroscopic liver tumor lesions)", "setting": "[8]", "result": "much less"}]}
